Laboratory results: ChEMBL document CHEMBL1148572, “1-((S)-2-aminopropyl)-1H-indazol-6-ol: a potent peripherally acting 5-HT2 receptor agonist with ocular hypotensive activity” (J Med Chem, 2006)

Columns and labels:
[1] = tested on: MDR1 (P-gp); test: Permeability from apical to basolateral side of the MDCK cell transfected with human MDR1; type: ADME, cell-based
[2] = target: 5-hydroxytryptamine receptor 2B (Rattus norvegicus, UniProt P30994); test: Activity against 5HT2B receptor in longitudinal stomach fundus strips in wistar rats
[3] = target: T1, 5-hydroxytryptamine receptor 2A (Rattus norvegicus, UniProt P14842); type: tissue-based, Cerebral cortex
[4] = target: T1, 5-hydroxytryptamine receptor 2A; test: (§1) Activity against 5HT2A mediated intracellular calcium mobilization by FLIPR in rat vascular smooth muscle cells; type: functional, cell-based
[5] = target: 5-hydroxytryptamine receptor 2A (Rattus norvegicus) (UniProt P14842); test: as §1; type: functional, cell-based
[6] = tested on: MDR1 (P-gp); test: Permeability from basolateral to apical side of the MDCK cell transfected with human MDR1; type: ADME, cell-based
[7] = target: T2, 5-hydroxytryptamine receptor 2C (Rattus norvegicus, UniProt P08909); test: Activity against recombinant rat 5HT2C mediated intracellular calcium mobilization by FLIPR in SR3T3 cells
T2 sequence (P08909 whole entry): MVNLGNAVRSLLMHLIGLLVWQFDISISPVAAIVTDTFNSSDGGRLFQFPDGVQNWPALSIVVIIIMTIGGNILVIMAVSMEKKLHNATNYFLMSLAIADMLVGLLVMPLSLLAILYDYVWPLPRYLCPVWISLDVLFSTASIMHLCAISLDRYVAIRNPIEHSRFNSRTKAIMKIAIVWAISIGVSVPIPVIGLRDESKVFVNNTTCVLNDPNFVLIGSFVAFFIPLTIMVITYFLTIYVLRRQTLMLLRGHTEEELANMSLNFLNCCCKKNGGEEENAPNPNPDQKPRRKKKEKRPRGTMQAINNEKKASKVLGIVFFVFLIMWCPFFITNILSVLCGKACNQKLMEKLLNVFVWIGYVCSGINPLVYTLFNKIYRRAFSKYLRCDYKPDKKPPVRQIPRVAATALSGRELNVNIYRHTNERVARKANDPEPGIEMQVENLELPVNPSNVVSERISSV

[8] = Distribution coefficient at pH 7.4; type: physicochemical; settings: octanol/water
[9] = tested on: MDR1 (P-gp); test: in vitro; settings: human, MDCK-MDR1
Description: Ratio of permeability from basolateral to apical over apical to basolateral side of the MDCK cell transfected with human MDR1

[10] = Half life in phosphate buffer at pH 7.4 in 25 degC; type: ADME
[11] = target: 5-hydroxytryptamine receptor 2B (Homo sapiens, UniProt P41595); test: biochemical
Description: Displacement of [125I]DOI from cloned human 5HT2B receptor expressed in CHO cells

[12] = target: 5-hydroxytryptamine receptor 2A (Homo sapiens, UniProt P28223); type: cell-based, CHO
[13] = target: T3, 5-hydroxytryptamine receptor 2C (Rattus norvegicus) (UniProt P08909); test: Activity against recombinant rat 5HT2C mediated intracellular calcium mobilization by FLIPR in SR3T3 cells
T3 sequence (whole entry): T2 sequence (P08909 whole entry)

[14] = target: T4, 5-hydroxytryptamine receptor 2C (Homo sapiens, UniProt P28335); test: biochemical
T4 sequence (P28335 whole entry): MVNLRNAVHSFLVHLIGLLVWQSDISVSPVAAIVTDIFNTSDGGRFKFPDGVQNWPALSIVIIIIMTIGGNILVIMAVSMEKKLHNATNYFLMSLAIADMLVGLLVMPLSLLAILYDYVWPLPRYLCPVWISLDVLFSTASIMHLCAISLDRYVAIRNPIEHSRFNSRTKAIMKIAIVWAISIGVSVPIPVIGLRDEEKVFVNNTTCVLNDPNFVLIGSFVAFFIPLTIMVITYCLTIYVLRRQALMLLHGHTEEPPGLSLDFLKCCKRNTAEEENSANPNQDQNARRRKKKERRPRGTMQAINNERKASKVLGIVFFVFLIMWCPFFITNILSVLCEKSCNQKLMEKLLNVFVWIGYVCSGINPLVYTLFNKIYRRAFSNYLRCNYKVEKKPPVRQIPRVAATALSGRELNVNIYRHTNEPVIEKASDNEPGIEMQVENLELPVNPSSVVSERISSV
Description: Displacement of [125I]DOI from cloned human 5HT2C receptor expressed in CHO cells

[15] = target: T5, Alpha-2A adrenergic receptor (Homo sapiens, UniProt P08913); test: Activity at adrenergic alpha-2A receptor expressed in human clonic adenocarcinoma HT29 cell by adenylyl cyclase assay; type: functional, cell-based, HT-29
T5 sequence (P08913 whole entry): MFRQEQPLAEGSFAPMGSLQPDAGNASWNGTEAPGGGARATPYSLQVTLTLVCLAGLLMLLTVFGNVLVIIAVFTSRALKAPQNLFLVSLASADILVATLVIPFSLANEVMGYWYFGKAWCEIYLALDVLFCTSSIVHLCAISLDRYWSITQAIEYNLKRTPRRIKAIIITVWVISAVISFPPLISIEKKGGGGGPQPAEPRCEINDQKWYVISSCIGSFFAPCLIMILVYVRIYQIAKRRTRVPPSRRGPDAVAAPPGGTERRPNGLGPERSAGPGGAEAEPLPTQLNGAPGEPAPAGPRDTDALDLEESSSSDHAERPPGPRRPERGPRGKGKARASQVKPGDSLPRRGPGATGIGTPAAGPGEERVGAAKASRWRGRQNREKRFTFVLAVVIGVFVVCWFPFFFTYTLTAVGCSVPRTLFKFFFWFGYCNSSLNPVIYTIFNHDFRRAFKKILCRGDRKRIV

[16] = target: 5-hydroxytryptamine receptor 7 (Homo sapiens, UniProt P34969); test: Activity at 5HT7 receptor expressed in human corneal epithelial CEPI-17-CL4 cells by adenylyl cyclase assay; type: functional, cell-based, Cornea
[17] = target: Alpha-2B adrenergic receptor (Homo sapiens, UniProt P18089); test: Activity at adrenergic alpha-2B receptor expressed in opposum kidney OK cell by adenylyl cyclase assay; type: functional, cell-based
[18] = target: T6, Alpha-2C adrenergic receptor (Homo sapiens, UniProt P18825); test: Activity at adrenergic Alpha-2C receptor expressed in rat-mouse hybrid […] cell by adenylyl cyclase assay; type: functional, cell-based
T6 sequence (P18825 whole entry): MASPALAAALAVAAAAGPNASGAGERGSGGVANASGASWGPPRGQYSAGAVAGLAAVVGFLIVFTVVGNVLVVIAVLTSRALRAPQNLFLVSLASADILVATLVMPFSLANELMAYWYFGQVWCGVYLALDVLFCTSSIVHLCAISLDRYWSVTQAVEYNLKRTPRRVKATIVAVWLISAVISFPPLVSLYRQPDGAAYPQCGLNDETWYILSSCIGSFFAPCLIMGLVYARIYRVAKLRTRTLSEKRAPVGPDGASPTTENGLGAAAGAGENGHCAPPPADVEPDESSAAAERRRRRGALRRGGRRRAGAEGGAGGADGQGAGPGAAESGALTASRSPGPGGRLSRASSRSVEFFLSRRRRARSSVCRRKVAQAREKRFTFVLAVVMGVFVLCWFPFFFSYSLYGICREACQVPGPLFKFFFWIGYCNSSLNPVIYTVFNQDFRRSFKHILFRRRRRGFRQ

[19] = target: T7, 5-hydroxytryptamine receptor 1A (Homo sapiens, UniProt P08908); test: Agonistic activity at cloned human 5HT1A receptor expressed in CHO cells by inhibition of forskolin-induced cAMP production; type: functional, cell-based
T7 sequence (P08908 whole entry): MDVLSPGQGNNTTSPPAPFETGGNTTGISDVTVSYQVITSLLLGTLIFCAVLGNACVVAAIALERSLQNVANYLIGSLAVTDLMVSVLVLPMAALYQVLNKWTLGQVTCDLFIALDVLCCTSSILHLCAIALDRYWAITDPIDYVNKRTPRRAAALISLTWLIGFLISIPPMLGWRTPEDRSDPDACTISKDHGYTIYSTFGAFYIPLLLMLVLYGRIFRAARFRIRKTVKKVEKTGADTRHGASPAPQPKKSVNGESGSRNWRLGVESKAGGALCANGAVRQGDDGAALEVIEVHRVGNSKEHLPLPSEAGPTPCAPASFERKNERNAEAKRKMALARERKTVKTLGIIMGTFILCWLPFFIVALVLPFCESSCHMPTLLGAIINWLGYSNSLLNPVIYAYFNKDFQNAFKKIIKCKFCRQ

[20] = target: T5, Alpha-2A adrenergic receptor; test: Activity at adrenergic alpha2A receptor expressed in human clonic adenocarcinoma HT29 cell by […]; type: functional, cell-based, HT-29
[21] = Half life in phosphate buffer at pH 7.4 in 45 degC; type: ADME

Sequence of 5-hydroxytryptamine receptor 2A (Rattus norvegicus) (P14842 whole entry): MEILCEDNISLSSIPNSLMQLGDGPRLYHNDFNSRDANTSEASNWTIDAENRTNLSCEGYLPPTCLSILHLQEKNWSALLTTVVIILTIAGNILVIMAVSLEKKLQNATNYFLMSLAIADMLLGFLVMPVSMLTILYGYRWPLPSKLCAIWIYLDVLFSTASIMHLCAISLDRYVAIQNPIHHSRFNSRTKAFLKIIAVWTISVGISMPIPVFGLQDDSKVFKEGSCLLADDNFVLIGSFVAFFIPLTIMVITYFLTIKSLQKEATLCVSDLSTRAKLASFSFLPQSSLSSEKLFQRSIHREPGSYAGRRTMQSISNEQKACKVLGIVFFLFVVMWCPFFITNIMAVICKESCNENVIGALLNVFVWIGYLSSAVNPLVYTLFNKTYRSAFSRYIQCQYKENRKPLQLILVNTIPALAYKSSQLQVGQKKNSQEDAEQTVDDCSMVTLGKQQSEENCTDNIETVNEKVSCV
T1 sequence (P14842 whole entry): as above
Sequence of 5-hydroxytryptamine receptor 2B (Homo sapiens, UniProt P41595) (P41595 whole entry): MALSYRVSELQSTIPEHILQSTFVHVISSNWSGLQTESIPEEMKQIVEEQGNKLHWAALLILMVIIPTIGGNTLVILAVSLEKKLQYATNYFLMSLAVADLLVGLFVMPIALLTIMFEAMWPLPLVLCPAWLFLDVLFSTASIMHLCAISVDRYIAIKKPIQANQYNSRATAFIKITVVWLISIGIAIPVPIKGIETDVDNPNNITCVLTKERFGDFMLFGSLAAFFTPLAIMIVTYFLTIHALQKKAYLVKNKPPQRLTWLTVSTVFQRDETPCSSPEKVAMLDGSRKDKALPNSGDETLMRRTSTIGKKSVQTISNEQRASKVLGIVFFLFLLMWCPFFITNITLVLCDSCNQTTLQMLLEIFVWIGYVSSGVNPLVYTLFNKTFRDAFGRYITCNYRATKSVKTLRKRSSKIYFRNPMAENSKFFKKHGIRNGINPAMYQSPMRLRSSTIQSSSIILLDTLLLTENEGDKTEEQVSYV
Sequence of 5-hydroxytryptamine receptor 2B (Rattus norvegicus, UniProt P30994) (P30994 whole entry): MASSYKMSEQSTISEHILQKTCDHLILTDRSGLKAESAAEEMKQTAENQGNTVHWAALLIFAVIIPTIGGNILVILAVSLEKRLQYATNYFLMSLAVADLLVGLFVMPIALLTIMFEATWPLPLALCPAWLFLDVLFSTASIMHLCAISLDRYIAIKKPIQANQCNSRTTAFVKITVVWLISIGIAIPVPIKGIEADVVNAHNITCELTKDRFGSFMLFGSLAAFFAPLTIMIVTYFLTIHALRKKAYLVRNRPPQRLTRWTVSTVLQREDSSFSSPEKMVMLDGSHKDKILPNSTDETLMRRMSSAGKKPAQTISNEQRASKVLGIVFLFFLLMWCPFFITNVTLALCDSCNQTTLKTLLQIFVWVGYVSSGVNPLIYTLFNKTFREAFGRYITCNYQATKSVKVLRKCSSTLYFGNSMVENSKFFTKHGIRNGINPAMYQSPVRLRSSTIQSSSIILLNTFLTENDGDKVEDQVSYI
Sequence of 5-hydroxytryptamine receptor 2A (Homo sapiens, UniProt P28223) (P28223 whole entry): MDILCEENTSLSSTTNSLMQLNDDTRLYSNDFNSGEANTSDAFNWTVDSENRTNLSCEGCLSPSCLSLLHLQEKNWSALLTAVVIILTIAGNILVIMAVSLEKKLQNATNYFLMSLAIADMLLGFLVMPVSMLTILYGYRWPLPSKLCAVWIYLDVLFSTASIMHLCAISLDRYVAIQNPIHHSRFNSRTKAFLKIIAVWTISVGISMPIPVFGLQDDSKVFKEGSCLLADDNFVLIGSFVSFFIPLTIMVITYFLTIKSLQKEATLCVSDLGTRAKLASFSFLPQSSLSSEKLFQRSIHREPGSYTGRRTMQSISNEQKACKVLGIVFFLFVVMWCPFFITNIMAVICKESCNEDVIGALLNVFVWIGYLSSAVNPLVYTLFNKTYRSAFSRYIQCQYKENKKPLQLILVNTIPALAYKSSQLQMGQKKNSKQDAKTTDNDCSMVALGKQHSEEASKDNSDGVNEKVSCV
Sequence of 5-hydroxytryptamine receptor 7 (P34969 whole entry): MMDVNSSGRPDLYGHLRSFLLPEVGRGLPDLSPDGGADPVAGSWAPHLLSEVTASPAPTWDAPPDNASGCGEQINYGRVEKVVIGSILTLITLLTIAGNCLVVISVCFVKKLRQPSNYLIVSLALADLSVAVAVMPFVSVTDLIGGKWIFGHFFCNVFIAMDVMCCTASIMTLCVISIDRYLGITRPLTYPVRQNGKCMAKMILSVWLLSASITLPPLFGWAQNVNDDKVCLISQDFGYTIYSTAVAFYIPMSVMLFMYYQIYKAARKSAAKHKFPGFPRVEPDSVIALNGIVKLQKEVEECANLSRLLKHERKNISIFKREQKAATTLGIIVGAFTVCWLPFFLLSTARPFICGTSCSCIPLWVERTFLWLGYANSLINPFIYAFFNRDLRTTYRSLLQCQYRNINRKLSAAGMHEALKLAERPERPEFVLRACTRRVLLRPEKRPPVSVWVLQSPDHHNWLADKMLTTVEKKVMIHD
Sequence of Alpha-2B adrenergic receptor (P18089 whole entry): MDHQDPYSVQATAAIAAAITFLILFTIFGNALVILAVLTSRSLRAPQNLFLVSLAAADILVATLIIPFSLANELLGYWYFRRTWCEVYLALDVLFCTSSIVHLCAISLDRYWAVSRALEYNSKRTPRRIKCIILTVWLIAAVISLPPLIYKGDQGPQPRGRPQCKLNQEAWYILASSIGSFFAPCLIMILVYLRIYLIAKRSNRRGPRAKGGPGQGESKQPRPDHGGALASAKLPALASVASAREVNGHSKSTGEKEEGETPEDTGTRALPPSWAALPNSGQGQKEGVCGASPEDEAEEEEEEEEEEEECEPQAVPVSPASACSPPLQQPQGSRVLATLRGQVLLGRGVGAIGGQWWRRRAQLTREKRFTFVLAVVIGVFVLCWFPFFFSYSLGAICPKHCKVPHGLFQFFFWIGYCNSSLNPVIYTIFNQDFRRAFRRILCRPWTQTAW

Row | SMILES | Papp A→B [1] [×10⁻⁶ cm/s] | EC50 [2] [nM] | IC50 [3] [nM] | EC50 [4] [nM] | Emax [5] [%] | Papp B→A [6] [×10⁻⁶ cm/s] | EC50 [7] [nM] | logD [8] | T1/2 [10] [yr] | Ki [11] [nM] | Ki [12] [nM] | Emax [13] [%] | Ki [14] [nM] | also measured
1 | COc1cc(C[C@@H](C)N)c(OC)cc1I | 12.6 | 11.9 | 0.21 | 19.8 | 35 | 23.2 | 30.2 | 2.72 | – | – | – | – | – | –
2 | C[C@H](N)Cn1ncc2ccc(O)c(F)c21 | 1.11 | 6.1 | 0.73 | 58.1 | 80 | 1.66 | 5.5 | 0.394 | 1.4 | 1.7 | 5.8 | 100 | 1 | efflux ratio [9]: 1.5
3 | NCCn1ncc2ccc(O)cc21 | 0.64 | 8.6 | 0.77 | 74.4 | 75 | 0.6 | 4.5 | 0.254 | 3.7 | 15 | 20 | 104 | 9.6 | –
4 | COc1ccc2cnn(C[C@H](C)N)c2c1 | 14.1 | 4.2 | 1.91 | 54 | 90 | 19.5 | 6.7 | 2.08 | – | 7.5 | 16 | 103 | 1.5 | –
5 | C[C@H](N)Cn1ncc2ccc(O)c(I)c21 | 1.22 | – | 1.68 | 204 | 73 | 3.46 | – | 3 | – | 6 | 21 | – | 4.8 | –
6 | C[C@H](N)Cn1ncc2ccc(O)c(Cl)c21 | 1.65 | 5.9 | 0.54 | 59.7 | 87 | 4.94 | 4.9 | 1.09 | 4 | 3.8 | 12 | 104 | 1.2 | efflux ratio [9]: 3
7 | C[C@@H](N)Cn1ncc2ccc(O)cc21 | – | 85 | 2.08 | 236 | 61 | – | 87.3 | – | – | 35 | 105 | 97 | 34 | EC50 [15]: > 10000 nM; EC50 [16]: > 10000 nM; EC50 [17]: 4710 nM; EC50 [18]: 5660 nM; EC50 [19]: 2890 nM; EC50 [20]: 1990 nM
8 | Cc1c(O)ccc2cnn(C[C@H](C)N)c12 | 2.49 | 8.9 | 0.74 | 81.3 | 89 | 3.12 | 7.3 | 1.28 | 0.73 | 8.7 | 1.8 | 91 | 3.6 | –
9 | CC(N)Cc1c[nH]c2ccc(O)cc12 (configuration not stated) | – | – | – | – | 96 | – | – | – | – | – | – | 100 | – | T1/2 [21]: 0.071 yr
10 | COc1ccc2[nH]cc(CC(C)N)c2c1 (configuration not stated) | – | 2.7 | 2 | 47.5 | 96 | – | 3.1 | – | – | – | – | 103 | – | –
11 | COc1ccc2[nH]cc(CCN(C)C)c2c1 [MEBUFOTENIN] | 16.1 | – | 9.53 | 462 | 70 | 14.4 | – | 3.3 | – | – | – | 89 | – | –
12 | NCCc1c[nH]c2ccc(O)cc12 [SEROTONIN] | – | – | – | – | 99 | – | – | – | – | – | – | 94 | – | T1/2 [21]: 0.03 yr
